From patent US10286034B2, “Uses of bremelanotide in therapy for female sexual dysfunction” (Palatin Technologies, Inc., priority 2012, dated 2019)
Marks after values point to notes of the source that are not given here.

How the values were obtained:
Type in all cases: in vivo, human
[1] = Intranasal 10 mg Phase 2 studies in women with FSAD: plasma concentration 30 minutes post dose; settings: 10 mg intranasal
Description: In the bremelanotide premenopausal arm, 42.5% of the subjects were discontinued due to hypertension, nausea, vomiting or myalgia. Subjects received a 10 mg intranasal dose of bremelanotide, with premenopausal subjects determined to have a mean plasma concentration of 88.5±51.9 ng/mL and a % CV of 58.6, and postmenopausal subjects determined to have a mean plasma concentration of 93.2±68.5 ng/mL and a % CV of 73.5. The minimum and maximum plasma concentration levels for all women at thirty minutes post dose range from 0.0 ng/mL to 207.0 ng/mL.
In the intranasal study, premenopausal women self-administered a 10 mg intranasal dose.

[2] = Example 1: ambulatory blood pressure monitoring after in-clinic dose; settings: for Pulse: treatment group difference (from placebo) in mean change: in bpm; for DBP: treatment group difference (from placebo) in mean change / SBP: treatment group difference (from placebo) in mean change: in mmHg (unit assumed); for HR-BP Product: treatment group difference (from placebo) in mean change: in mmHg·bpm (unit assumed)
Description: Ambulatory blood pressure monitoring was conducted following both placebo and randomized treatment group in-clinic administrations. Three periods of ambulatory blood pressure monitoring were included, the first period was from before to 24 hours after a single, in-clinic dose of placebo (to establish a baseline); the second and third periods occurred from before to 24 hours after each of 2 single, in-clinic doses of double-blind treatment, administered within 14 days of each other. Blood samples for pharmacokinetic analysis were collected before and at 0.5, 1.0, and 2.0 hours after each in-clinic bremelanotide single-dose treatment (double-blind only), to permit analysis of concentration-response relationships.
Mean changes in blood pressure were characterized in all subjects based on sequential supervised dosing of single-blind subcutaneous placebo and two doses of randomized study drug. The primary analysis for mean changes was the difference between treatment groups in the change from single-blind placebo to randomized drug (Visit 2 vs. Visits 5/7). There were between 86 to 100 subjects in each dose group.
Although there were an increased number of outliers for maximal changes from baseline in systolic blood pressure in drug-treated patients, the duration of these events was quite limited. The interrogation interval during ambulatory blood pressure monitoring assessments of 15 minutes allowed definition of the maximal duration of such excursions. […] The clinical significance of such changes, if any, is small.

[3] = Adverse events with single-dose SC administration (Trials -14, -06, -10)
Description: Subcutaneous dosing was tested in 5 Phase 1 trials (3 in females, 2 in males) and one Phase 2 trial (males). The most common adverse events associated with single-dose SC bremelanotide administration (Trials −14, −06, and −10) were somnolence (30%), flushing (15%), nausea (19%), and vomiting (10%).

[4] = all women, thirty minutes post dose
[5] = 0.75 mg SC, interval 0-24 h, V5
[6] = 0.75 mg SC, interval 0-24 h, V7
[7] = 0.75 mg SC, interval 8-24 h, V5
[8] = 0.75 mg SC, interval 8-24 h, V7
[9] = 1.25 mg SC, interval 0-24 h, V5
[10] = 1.25 mg SC, interval 0-24 h, V7
[11] = 1.25 mg SC, interval 8-24 h, V5
[12] = 1.25 mg SC, interval 8-24 h, V7
[13] = 1.75 mg SC, interval 0-24 h, V5
[14] = 1.75 mg SC, interval 0-24 h, V7
[15] = 1.75 mg SC, interval 8-24 h, V5
[16] = 1.75 mg SC, interval 8-24 h, V7

CCCC[C@H](NC(C)=O)C(=O)N[C@H]1CC(=O)NCCCC[C@@H](C(=O)O)NC(=O)[C@H](Cc2c[nH]c3ccccc23)NC(=O)[C@H](CCCNC(=N)N)NC(=O)[C@@H](Cc2ccccc2)NC(=O)[C@H](Cc2c[nH]cn2)NC1=O [bremelanotide, Ac-Nle-cyclo(-Asp-His-D-Phe-Arg-Trp-Lys)-OH]
maximum plasma concentration level [1, 4]: 207.0 ng/mL
minimum plasma concentration level [1, 4]: 0.0 ng/mL
% CV of plasma concentration ([1]; postmenopausal subjects): 73.5%
% CV of Cmax (plasma concentration) ([1]; premenopausal women, 30 minutes post dosing): 58.6%
level at 0.5 h ([1]; female, human, plasma, inhaled or intranasal, postmenopausal subjects): 93.2 ± 68.5 ng/mL
Pulse: treatment group difference (from placebo) in mean change ([2]; 0.75 mg SC, interval 0-4 h, V5): −5.2*
DBP: treatment group difference (from placebo) in mean change ([2]; 0.75 mg SC, interval 0-4 h, V5): 1.5
SBP: treatment group difference (from placebo) in mean change ([2]; 0.75 mg SC, interval 0-4 h, V5): 1.8
HR-BP Product: treatment group difference (from placebo) in mean change ([2]; 0.75 mg SC, interval 0-4 h, V5): −492.8*
Pulse: treatment group difference (from placebo) in mean change ([2]; 0.75 mg SC, interval 0-4 h, V7): −4.8*
DBP: treatment group difference (from placebo) in mean change ([2]; 0.75 mg SC, interval 0-4 h, V7): 0.6
SBP: treatment group difference (from placebo) in mean change ([2]; 0.75 mg SC, interval 0-4 h, V7): 1.1
HR-BP Product: treatment group difference (from placebo) in mean change ([2]; 0.75 mg SC, interval 0-4 h, V7): −491.9*
Pulse: treatment group difference (from placebo) in mean change [2, 5]: −2.2*
DBP: treatment group difference (from placebo) in mean change [2, 5]: 1.1*
SBP: treatment group difference (from placebo) in mean change [2, 5]: 1.1
HR-BP Product: treatment group difference (from placebo) in mean change [2, 5]: −187.7
Pulse: treatment group difference (from placebo) in mean change [2, 6]: −1.6
DBP: treatment group difference (from placebo) in mean change [2, 6]: 1.3*
SBP: treatment group difference (from placebo) in mean change [2, 6]: 1.5
HR-BP Product: treatment group difference (from placebo) in mean change [2, 6]: −82.3
Pulse: treatment group difference (from placebo) in mean change ([2]; 0.75 mg SC, interval 4-8 h, V5): −6.2*
DBP: treatment group difference (from placebo) in mean change ([2]; 0.75 mg SC, interval 4-8 h, V5): 1.3
SBP: treatment group difference (from placebo) in mean change ([2]; 0.75 mg SC, interval 4-8 h, V5): 0.9
HR-BP Product: treatment group difference (from placebo) in mean change ([2]; 0.75 mg SC, interval 4-8 h, V5): −676.5*
Pulse: treatment group difference (from placebo) in mean change ([2]; 0.75 mg SC, interval 4-8 h, V7): −5.5*
DBP: treatment group difference (from placebo) in mean change ([2]; 0.75 mg SC, interval 4-8 h, V7): 1.7
SBP: treatment group difference (from placebo) in mean change ([2]; 0.75 mg SC, interval 4-8 h, V7): 1.6
HR-BP Product: treatment group difference (from placebo) in mean change ([2]; 0.75 mg SC, interval 4-8 h, V7): −503.3*
Pulse: treatment group difference (from placebo) in mean change [2, 7]: −0.4
DBP: treatment group difference (from placebo) in mean change [2, 7]: 1.0
SBP: treatment group difference (from placebo) in mean change [2, 7]: 0.9
HR-BP Product: treatment group difference (from placebo) in mean change [2, 7]: 5.2
Pulse: treatment group difference (from placebo) in mean change [2, 8]: 0.1
DBP: treatment group difference (from placebo) in mean change [2, 8]: 1.3*
SBP: treatment group difference (from placebo) in mean change [2, 8]: 1.6
HR-BP Product: treatment group difference (from placebo) in mean change [2, 8]: 114.9
Pulse: treatment group difference (from placebo) in mean change ([2]; 1.25 mg SC, interval 0-4 h, V5): −5.2*
DBP: treatment group difference (from placebo) in mean change ([2]; 1.25 mg SC, interval 0-4 h, V5): 3.0*
SBP: treatment group difference (from placebo) in mean change ([2]; 1.25 mg SC, interval 0-4 h, V5): 2.4*
HR-BP Product: treatment group difference (from placebo) in mean change ([2]; 1.25 mg SC, interval 0-4 h, V5): −436.4*
Pulse: treatment group difference (from placebo) in mean change ([2]; 1.25 mg SC, interval 0-4 h, V7): −6.1*
DBP: treatment group difference (from placebo) in mean change ([2]; 1.25 mg SC, interval 0-4 h, V7): 2.2*
SBP: treatment group difference (from placebo) in mean change ([2]; 1.25 mg SC, interval 0-4 h, V7): 2.1*
HR-BP Product: treatment group difference (from placebo) in mean change ([2]; 1.25 mg SC, interval 0-4 h, V7): −583.3*
Pulse: treatment group difference (from placebo) in mean change [2, 9]: −2.9*
DBP: treatment group difference (from placebo) in mean change [2, 9]: 1.9*
SBP: treatment group difference (from placebo) in mean change [2, 9]: 1.1
HR-BP Product: treatment group difference (from placebo) in mean change [2, 9]: −265.9
Pulse: treatment group difference (from placebo) in mean change [2, 10]: −2.6*
DBP: treatment group difference (from placebo) in mean change [2, 10]: 1.7*
SBP: treatment group difference (from placebo) in mean change [2, 10]: 1.6*
HR-BP Product: treatment group difference (from placebo) in mean change [2, 10]: −206.5
Pulse: treatment group difference (from placebo) in mean change ([2]; 1.25 mg SC, interval 4-8 h, V5): −6.1*
DBP: treatment group difference (from placebo) in mean change ([2]; 1.25 mg SC, interval 4-8 h, V5): 2.2*
SBP: treatment group difference (from placebo) in mean change ([2]; 1.25 mg SC, interval 4-8 h, V5): 1.4
HR-BP Product: treatment group difference (from placebo) in mean change ([2]; 1.25 mg SC, interval 4-8 h, V5): −621.0*
Pulse: treatment group difference (from placebo) in mean change ([2]; 1.25 mg SC, interval 4-8 h, V7): −6.5*
DBP: treatment group difference (from placebo) in mean change ([2]; 1.25 mg SC, interval 4-8 h, V7): 0.9
SBP: treatment group difference (from placebo) in mean change ([2]; 1.25 mg SC, interval 4-8 h, V7): 1.3*
HR-BP Product: treatment group difference (from placebo) in mean change ([2]; 1.25 mg SC, interval 4-8 h, V7): −669.7*
Pulse: treatment group difference (from placebo) in mean change [2, 11]: −1.5
DBP: treatment group difference (from placebo) in mean change [2, 11]: 1.4*
SBP: treatment group difference (from placebo) in mean change [2, 11]: 0.7
HR-BP Product: treatment group difference (from placebo) in mean change [2, 11]: −127.4
Pulse: treatment group difference (from placebo) in mean change [2, 12]: −0.7
DBP: treatment group difference (from placebo) in mean change [2, 12]: 1.7*
SBP: treatment group difference (from placebo) in mean change [2, 12]: 1.5*
HR-BP Product: treatment group difference (from placebo) in mean change [2, 12]: 4.2
Pulse: treatment group difference (from placebo) in mean change ([2]; 1.75 mg SC, interval 0-4 h, V5): −4.6*
DBP: treatment group difference (from placebo) in mean change ([2]; 1.75 mg SC, interval 0-4 h, V5): 3.2*
SBP: treatment group difference (from placebo) in mean change ([2]; 1.75 mg SC, interval 0-4 h, V5): 3.1*
HR-BP Product: treatment group difference (from placebo) in mean change ([2]; 1.75 mg SC, interval 0-4 h, V5): −305.9
Pulse: treatment group difference (from placebo) in mean change ([2]; 1.75 mg SC, interval 0-4 h, V7): −4.7*
DBP: treatment group difference (from placebo) in mean change ([2]; 1.75 mg SC, interval 0-4 h, V7): 2.6*
SBP: treatment group difference (from placebo) in mean change ([2]; 1.75 mg SC, interval 0-4 h, V7): 2.5*
HR-BP Product: treatment group difference (from placebo) in mean change ([2]; 1.75 mg SC, interval 0-4 h, V7): −375.4*
Pulse: treatment group difference (from placebo) in mean change [2, 13]: −2.2*
DBP: treatment group difference (from placebo) in mean change [2, 13]: 1.9*
SBP: treatment group difference (from placebo) in mean change [2, 13]: 1.6
HR-BP Product: treatment group difference (from placebo) in mean change [2, 13]: −139.1
Pulse: treatment group difference (from placebo) in mean change [2, 14]: −2.2*
DBP: treatment group difference (from placebo) in mean change [2, 14]: 1.8*
SBP: treatment group difference (from placebo) in mean change [2, 14]: 1.3
HR-BP Product: treatment group difference (from placebo) in mean change [2, 14]: −184.1
Pulse: treatment group difference (from placebo) in mean change ([2]; 1.75 mg SC, interval 4-8 h, V5): −6.6*
DBP: treatment group difference (from placebo) in mean change ([2]; 1.75 mg SC, interval 4-8 h, V5): 2.3*
SBP: treatment group difference (from placebo) in mean change ([2]; 1.75 mg SC, interval 4-8 h, V5): 2.1
HR-BP Product: treatment group difference (from placebo) in mean change ([2]; 1.75 mg SC, interval 4-8 h, V5): −608.1*
Pulse: treatment group difference (from placebo) in mean change ([2]; 1.75 mg SC, interval 4-8 h, V7): −6.6*
DBP: treatment group difference (from placebo) in mean change ([2]; 1.75 mg SC, interval 4-8 h, V7): 2.2*
SBP: treatment group difference (from placebo) in mean change ([2]; 1.75 mg SC, interval 4-8 h, V7): 2.2
HR-BP Product: treatment group difference (from placebo) in mean change ([2]; 1.75 mg SC, interval 4-8 h, V7): −624.5*
Pulse: treatment group difference (from placebo) in mean change [2, 15]: −0.8
DBP: treatment group difference (from placebo) in mean change [2, 15]: 1.4*
SBP: treatment group difference (from placebo) in mean change [2, 15]: 0.9
HR-BP Product: treatment group difference (from placebo) in mean change [2, 15]: −23.7
Pulse: treatment group difference (from placebo) in mean change [2, 16]: −0.5
DBP: treatment group difference (from placebo) in mean change [2, 16]: 1.4
SBP: treatment group difference (from placebo) in mean change [2, 16]: 0.6
HR-BP Product: treatment group difference (from placebo) in mean change [2, 16]: −31.3
maximal change in systolic pressure ([2]; 1.75 mg dosing group, average of Visits 5 and 7): 3.15 mm Hg
change in blood pressure ([2]; drug treated subjects, predominantly within 4 hours of dosing): ~2 mm Hg
flushing incidence [3]: 15%
nausea incidence [3]: 19%
somnolence incidence [3]: 30%
vomiting incidence [3]: 10%
